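Values below derive from 48-hour exposures of cells grown in 96-well plates, with endpoints linearly interpolated between the two concentrations bracketing the appropriate inhibition level. Abbreviation: GI50, concentration required for 50% inhibition of growth. TGI: total growth inhibition.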

Among the test systems are RPMI-8226 leukemia; A549 NSCLC; SF-295 CNS; CCRF-CEM leukemia; SNB-75 CNS; MALME-3M melanoma; SK-OV-3 ovarian; MDA-MB-435; HT29 colon; NCI-H522 lung.
Common to all, as to assay: DTP human tumour cell line panel, 48 h

In general, TGI refers to the concentration giving total growth inhibition. Consider `COC(=O)C1=C(C(=O)OC)C2(C)CCC(=O)C1O2` (stereo not drawn), for which the TGI in the test with RPMI-8226 leukemia, with A549 NSCLC, with SF-295 CNS, with CCRF-CEM leukemia, in the test with SNB-75 CNS and with MALME-3M melanoma was above 10 µM each time. Moreover, the TGI in the test on SK-OV-3 ovarian, with MDA-MB-435 and with HT29 colon was above 10 µM in each case.
As to `Cc1ccsc1C(=S)Nc1ccc(Cl)c(C(=O)OC(C(C)C)C(C)C)c1`, the TGI with RPMI-8226 leukemia was 45.1 µM; in the test with A549 NSCLC, above 100 µM; in the test with SF-295 CNS it was above 100 µM; in the test on NCI-H522 lung it was 81.8 µM; in the test with CCRF-CEM leukemia, above 100 µM; in the test with SNB-75 CNS, 95.3 µM. For the same compound, the TGI in the test with SK-OV-3 ovarian was above 100 µM; in the test with MDA-MB-435, 63.1 µM; in the test on HT29 colon, 71.6 µM.
Take `COc1cc(-c2c3c(cc4c2OCO4)[C@@H](Nc2ccc4c(c2)Cc2cc(N[C@@H]5c6cc7c(cc6C(c6cc(OC)c(O)c(OC)c6)[C@H]6C(=O)OC[C@H]56)OCO7)ccc2-4)[C@H]2COC(=O)[C@@H]2C3)cc(OC)c1O` (stereo partly drawn): the TGI with RPMI-8226 leukemia was above 100 µM; with A549 NSCLC it was above 100 µM; in the test with SF-295 CNS, 42.3 µM; in the test on CCRF-CEM leukemia it was above 100 µM; in the test on SNB-75 CNS it was above 100 µM; in the test on MALME-3M melanoma it was 60.4 µM. Further, the TGI in the test on SK-OV-3 ovarian is 41.1 µM; in the test on MDA-MB-435, 33.1 µM; in the test on HT29 colon, 47.2 µM.
As to `CN(C)c1nc(=NCc2ccccn2)ss1`, the TGI with RPMI-8226 leukemia is above 10 µM; with A549 NSCLC, above 10 µM; in the test on SF-295 CNS, above 10 µM; in the test with CCRF-CEM leukemia, above 10 µM; in the test with SNB-75 CNS, above 10 µM; with MALME-3M melanoma, above 8.91 µM. Also, the concentration for total growth inhibition (TGI) in the test on SK-OV-3 ovarian, in the test with MDA-MB-435 and with HT29 colon was above 10 µM each time.
Take `CC/C=C\C/C=C\C/C=C\CCCCCCCC(=O)OC(COC(=O)CCCCCCCCCCCCCCCCC)COC1OC(CO)C(O)C(O)C1O` (stereo not drawn): the TGI in the test with RPMI-8226 leukemia, in the test with A549 NSCLC, in the test on SF-295 CNS, in the test with NCI-H522 lung, with CCRF-CEM leukemia and in the test on SNB-75 CNS was above 25 µM each time. Also, the TGI with SK-OV-3 ovarian, in the test with MDA-MB-435 and with HT29 colon was above 25 µM throughout.
As usually defined, the GI50 is the concentration that inhibits growth by half. Consider `Nc1nc(Nc2ccc(OCc3cccc(F)c3)cc2)c2c(n1)[nH]c1ccc(O)cc12`, for which the GI50 was 2.16 µM with RPMI-8226 leukemia; 4.13 µM with A549 NSCLC; 2.5 µM with SF-295 CNS; 1.99 µM with NCI-H522 lung; 3.03 µM in the test with CCRF-CEM leukemia; 1.53 µM in the test on SNB-75 CNS. For the same compound, the GI50 in the test on SK-OV-3 ovarian is 17.1 µM; in the test on MDA-MB-435 it was 3.68 µM; in the test on HT29 colon it was 2.13 µM. Also, the TGI in the test on RPMI-8226 leukemia was 5.55 µM; in the test on A549 NSCLC it was 17.8 µM; with SF-295 CNS, 7.63 µM; in the test with NCI-H522 lung, 4.67 µM; with CCRF-CEM leukemia it was 9.62 µM; in the test on SNB-75 CNS it was 3.01 µM. The TGI in the test on SK-OV-3 ovarian stood at 31.3 µM; in the test on MDA-MB-435 it was 14.1 µM; in the test with HT29 colon, 4.49 µM.
With `Cc1cn(C2CC(OC(c3ccccc3)(c3ccccc3)c3ccccc3)C(COC(c3ccccc3)(c3ccccc3)c3ccccc3)O2)c(=O)[nH]c1=O` (stereo not drawn), the TGI in the test on A549 NSCLC, in the test on SF-295 CNS, in the test on CCRF-CEM leukemia, in the test with SNB-75 CNS, in the test with MALME-3M melanoma and in the test with SK-OV-3 ovarian was above 100 µM throughout. Besides, the TGI with MDA-MB-435 and in the test with HT29 colon was above 100 µM throughout.
Regarding `CCN(CC)C(=S)SS(=O)(=O)c1ccc(C)cc1`, the TGI in the test on SF-295 CNS was above 100 µM; with MALME-3M melanoma, 41.9 µM; with SK-OV-3 ovarian it was above 100 µM; in the test on MDA-MB-435, above 100 µM; with HT29 colon it was 30.2 µM.
In the case of `COC(=O)[C@H]1C=C[C@H](OC2OC(COC(C)=O)C(OC(C)=O)C(OC(C)=O)C2OC(C)=O)n2c(=O)n(-c3ccccc3)c(=O)n21` (stereo partly drawn), the TGI is 5.04 µM with RPMI-8226 leukemia; 35.4 µM in the test on A549 NSCLC; 26.9 µM in the test with SF-295 CNS; 0.504 µM in the test on NCI-H522 lung; 16.3 µM in the test on CCRF-CEM leukemia; 24.9 µM in the test on SNB-75 CNS. Besides, the TGI in the test with SK-OV-3 ovarian came to 32.6 µM; with MDA-MB-435, 16.6 µM; in the test with HT29 colon, 8.58 µM.
`O=CN(O)CC(=O)O`: the TGI in the test on RPMI-8226 leukemia, with A549 NSCLC, in the test with SF-295 CNS, with CCRF-CEM leukemia, in the test with SNB-75 CNS and in the test with MALME-3M melanoma was above 100 µM in each case. For the same compound, the TGI in the test with SK-OV-3 ovarian, in the test on MDA-MB-435 and in the test with HT29 colon was above 100 µM in each case.
On to `CN1c2ccccc2C(=O)NC12CCN(CC1COc3ccccc3O1)CC2` (stereo not drawn), for which the TGI with RPMI-8226 leukemia, in the test on A549 NSCLC, in the test with SF-295 CNS, in the test with CCRF-CEM leukemia, with SNB-75 CNS and with MALME-3M melanoma was above 100 µM in each case. In addition, the TGI with SK-OV-3 ovarian, in the test with MDA-MB-435 and in the test with HT29 colon was above 100 µM each time.

The values are drawn from PubChem BioAssay (NCI).
